Measurements reported in US10959432B2, “Microbiocidal oxadiazole derivatives” (Syngenta Participations AG, priority 2016, dated 2021).

Legend:
[1] = tested on: Glomerella laqenarium (Colletotrichum lagenarium); assay: Fungicidal activity against Glomerella lagenarium (Colletotrichum lagenarium) liquid culture / cucumber / preventative (anthracnose); assay type: cell-based; settings: Colletotrichum orbiculare; 20 ppm in the applied formulation; liquid culture in PDB, 24° C., 3 to 4 days after application; read-out: disease control compared to untreated control (inhibition of growth measured photometrically)
Experimental: Mycelia fragments or conidia suspensions of a fungus prepared either freshly from liquid cultures of the fungus or from cryogenic storage, are directly mixed into nutrient broth. DMSO solutions of the test compound (max. 10 mg/ml) are diluted with 0.025% Tween20 by a factor of 50 and 10 μl of this solution is pipetted into a microtiter plate (96-well format). The nutrient broth containing the fungal spores/mycelia fragments is then added to give an end concentration of the tested compound. The test plates are incubated in the dark at 24° C. and 96% relative humidity. The inhibition of fungal growth is determined photometrically after 2 to 7 days, depending on the pathosystem, and percent antifungal activity relative to the untreated check is calculated.
Example 4: Fungicidal Activity Against Glomerella laqenarium (Colletotrichum lagenarium) Liquid Culture/Cucumber/Preventative (Anthracnose)
Conidia of the fungus from cryogenic storage are directly mixed into nutrient broth (PDB—potato dextrose broth). After placing a (DMSO) solution of test compound into a microtiter plate (96-well format), the nutrient broth containing the fungal spores is added. The test plates are incubated at 24° C. and the inhibition of growth is measured photometrically 3 to 4 days after application.
The following compounds at 20 ppm in the applied formulation give at least 80% disease control in this test when compared to untreated control under the same conditions, which show extensive disease development.

[2] = tested on: Puccinia recondita f. sp. tritici; assay: Fungicidal activity against Puccinia recondita f. sp. tritici / wheat / leaf disc curative (brown rust); assay type: in vivo; settings: foliar, 200 ppm in the applied formulation, wheat leaf segments cv. Kanzler, curative (applied 1 day after inoculation), assessed 6 to 8 days after application, read-out: disease control compared to untreated control leaf disks
Experimental: (§1) Leaf disks or leaf segments of various plant species are cut from plants grown in a greenhouse. The cut leaf disks or segments are placed in multiwell plates (24-well format) onto water agar. The leaf disks are sprayed with a test solution before (preventative) or after (curative) inoculation. Compounds to be tested are prepared as DMSO solutions (max. 10 mg/ml) which are diluted to the appropriate concentration with 0.025% Tween20 just before spraying. The inoculated leaf disks or segments are incubated under defined conditions (temperature, relative humidity, light, etc.) according to the respective test system. A single evaluation of disease level is carried out 3 to 14 days after inoculation, depending on the pathosystem. Percent disease control relative to the untreated check leaf disks or segments is then calculated. General Examples of Liquid Culture Tests in Well Plates:
Example 2: Fungicidal Activity Against Puccinia recondita f. sp. Tritici/Wheat/Leaf Disc Curative (Brown Rust)
Wheat leaf segments cv. Kanzler are placed on agar in multiwell plates (24-well format). The leaf segments are then inoculated with a spore suspension of the fungus. Plates were stored in darkness at 19° C. and 75% relative humidity. The formulated test compound diluted in water was applied 1 day after inoculation. The leaf segments were incubated at 19° C. and 75% relative humidity under a light regime of 12 hours light/12 hours darkness in a climate cabinet and the activity of a compound was assessed as percent disease control compared to untreated when an appropriate level of disease damage appears in untreated check leaf segments (6 to 8 days after application).
(§2) The following compounds at 200 ppm in the applied formulation give at least 80% disease control in this test when compared to untreated control leaf disks under the same conditions, which show extensive disease development.

[3] = tested on: Puccinia recondita f. sp. tritici; assay: Fungicidal activity against Puccinia recondita f. sp. tritici / wheat / leaf disc preventative (brown rust); assay type: in vivo; settings: foliar, 200 ppm in the applied formulation, wheat leaf segments cv. Kanzler, preventative (inoculated 1 day after application), assessed 7 to 9 days after application, read-out: disease control compared to untreated control leaf disks
Experimental: as §1
Example 1: Fungicidal Activity Against Puccinia recondita f. sp. tritici/Wheat/Leaf Disc Preventative (Brown Rust)
Wheat leaf segments cv. Kanzler were placed on agar in multiwell plates (24-well format) and sprayed with the formulated test compound diluted in water. The leaf disks were inoculated with a spore suspension of the fungus 1 day after application. The inoculated leaf segments were incubated at 19C and 75% relative humidity (rh) under a light regime of 12 hours light/12 hours darkness in a climate cabinet and the activity of a compound was assessed as percent disease control compared to untreated when an appropriate level of disease damage appears in untreated check leaf segments (7 to 9 days after application).
as §2

[4] = tested on: Phakopsora pachyrhizi; assay: Fungicidal activity against Phakopsora pachyrhizi / soybean / leaf disc preventative (Asian soybean rust); assay type: in vivo; settings: foliar, 200 ppm in the applied formulation, soybean leaf disks, preventative (inoculated one day after application), assessed 12 to 14 days after application, read-out: disease control compared to untreated control leaf disks
Experimental: as §1
Example 3: Fungicidal Activity Against Phakopsora pachyrhizi/Soybean/Leaf Disc Preventative (Asian Soybean Rust)
Soybean leaf disks are placed on water agar in multiwell plates (24-well format) and sprayed with the formulated test compound diluted in water. One day after application leaf discs are inoculated by spraying a spore suspension on the lower leaf surface. After an incubation period in a climate cabinet of 24-36 hours in darkness at 20° C. and 75% rh leaf disc are kept at 20° C. with 12 h light/day and 75% rh. The activity of a compound is assessed as percent disease control compared to untreated when an appropriate level of disease damage appears in untreated check leaf disks (12 to 14 days after application).
as §2

O=C(NCCCCCl)c1ccc(-c2noc(C(F)(F)F)n2)cc1F [Compound 3b.20, N-(4-chlorobutyl)-2-fluoro-4-[5-(trifluoromethyl)-1,2,4-oxadiazol-3-yl]benzamide]
≥ 80%: inhibition at 20 ppm [1] | pest or weed control at 200 ppm [2] | pest or weed control at 200 ppm [3] | pest or weed control at 200 ppm [4]

O=C(NCCCCCl)c1ccc(-c2noc(C(F)(F)F)n2)cc1 [Compound 3a.20, N-(4-chlorobutyl)-4-[5-(trifluoromethyl)-1,2,4-oxadiazol-3-yl]benzamide]
≥ 80%: inhibition at 20 ppm [1] | pest or weed control at 200 ppm [2] | pest or weed control at 200 ppm [3] | pest or weed control at 200 ppm [4]

C=CCN(CC)C(=O)c1ccc(-c2noc(C(F)(F)F)n2)cc1 [Compound 3a.28, N-allyl-N-ethyl-4-[5-(trifluoromethyl)-1,2,4-oxadiazol-3-yl]benzamide]
≥ 80%: inhibition at 20 ppm [1] | pest or weed control at 200 ppm [2] | pest or weed control at 200 ppm [3] | pest or weed control at 200 ppm [4]

CC(O)CNC(=O)c1ccc(-c2noc(C(F)(F)F)n2)cc1 (stereo not shown) [Compound 3a.10, N-(2-hydroxypropyl)-4-[5-(trifluoromethyl)-1,2,4-oxadiazol-3-yl]benzamide]
≥ 80%: inhibition at 20 ppm [1] | pest or weed control at 200 ppm [2] | pest or weed control at 200 ppm [3] | pest or weed control at 200 ppm [4]

O=C(NCCO)c1ccc(-c2noc(C(F)(F)F)n2)cc1F [Compound 3b.21, 2-fluoro-N-(2-hydroxyethyl)-4-[5-(trifluoromethyl)-1,2,4-oxadiazol-3-yl]benzamide]
≥ 80%: inhibition at 20 ppm [1] | pest or weed control at 200 ppm [2] | pest or weed control at 200 ppm [3] | pest or weed control at 200 ppm [4]

CN(C(=O)c1ccc(-c2noc(C(F)(F)F)n2)cc1F)C(C)(C)C [Compound 3b.37, N-tert-butyl-2-fluoro-N-methyl-4-[5-(trifluoromethyl)-1,2,4-oxadiazol-3-yl]benzamide]
≥ 80%: inhibition at 20 ppm [1] | pest or weed control at 200 ppm [2] | pest or weed control at 200 ppm [3] | pest or weed control at 200 ppm [4]

COCC(C)NC(=O)c1ccc(-c2noc(C(F)(F)F)n2)cc1 (stereo not shown) [Compound 3a.37, N-(2-methoxy-1-methyl-ethyl)-4-[5-(trifluoromethyl)-1,2,4-oxadiazol-3-yl]benzamide]
≥ 80%: inhibition at 20 ppm [1] | pest or weed control at 200 ppm [2] | pest or weed control at 200 ppm [3] | pest or weed control at 200 ppm [4]

CC(C)CN(C)C(=O)c1ccc(-c2noc(C(F)(F)F)n2)cc1F [Compound 3b.14, 2-fluoro-N-isobutyl-N-methyl-4-[5-(trifluoromethyl)-1,2,4-oxadiazol-3-yl]benzamide]
≥ 80%: inhibition at 20 ppm [1] | pest or weed control at 200 ppm [2] | pest or weed control at 200 ppm [3] | pest or weed control at 200 ppm [4]

CC(C)(O)CNC(=O)c1ccc(-c2noc(C(F)(F)F)n2)cc1F [Compound 3b.29, 2-fluoro-N-(2-hydroxy-2-methyl-propyl)-4-[5-(trifluoromethyl)-1,2,4-oxadiazol-3-yl]benzamide]
≥ 80%: inhibition at 20 ppm [1] | pest or weed control at 200 ppm [2] | pest or weed control at 200 ppm [3] | pest or weed control at 200 ppm [4]

COCC(C)NC(=O)c1ccc(-c2noc(C(F)(F)F)n2)cc1F (stereo not shown) [Compound 3b.40, 2-fluoro-N-(2-methoxy-1-methyl-ethyl)-4-[5-(trifluoromethyl)-1,2,4-oxadiazol-3-yl]benzamide]
≥ 80%: inhibition at 20 ppm [1] | pest or weed control at 200 ppm [2] | pest or weed control at 200 ppm [3] | pest or weed control at 200 ppm [4]

C#CCN(C)C(=O)c1ccc(-c2noc(C(F)(F)F)n2)cc1 [Compound 3a.41, N-methyl-N-prop-2-ynyl-4-[5-(trifluoromethyl)-1,2,4-oxadiazol-3-yl]benzamide]
≥ 80%: inhibition at 20 ppm [1] | pest or weed control at 200 ppm [2] | pest or weed control at 200 ppm [3] | pest or weed control at 200 ppm [4]

CC(=O)CC(C)(C)NC(=O)c1ccc(-c2noc(C(F)(F)F)n2)cc1 [Compound 3a.16, N-(1,1-dimethyl-3-oxo-butyl)-4-[5-(trifluoromethyl)-1,2,4-oxadiazol-3-yl]benzamide]
≥ 80%: inhibition at 20 ppm [1] | pest or weed control at 200 ppm [2] | pest or weed control at 200 ppm [3] | pest or weed control at 200 ppm [4]

CC(C)CCNC(=O)c1ccc(-c2noc(C(F)(F)F)n2)cc1F [Compound 3b.41, 2-fluoro-N-isopentyl-4-[5-(trifluoromethyl)-1,2,4-oxadiazol-3-yl]benzamide]
≥ 80%: inhibition at 20 ppm [1] | pest or weed control at 200 ppm [2] | pest or weed control at 200 ppm [3] | pest or weed control at 200 ppm [4]

O=C(NCCCCCO)c1ccc(-c2noc(C(F)(F)F)n2)cc1F [Compound 3b.22, 2-fluoro-N-(5-hydroxypentyl)-4-[5-(trifluoromethyl)-1,2,4-oxadiazol-3-yl]benzamide]
≥ 80%: inhibition at 20 ppm [1] | pest or weed control at 200 ppm [2] | pest or weed control at 200 ppm [3] | pest or weed control at 200 ppm [4]

C=CCN(CC)C(=O)c1ccc(-c2noc(C(F)(F)F)n2)cc1F [Compound 3b.30, N-allyl-N-ethyl-2-fluoro-4-[5-(trifluoromethyl)-1,2,4-oxadiazol-3-yl]benzamide]
≥ 80%: inhibition at 20 ppm [1] | pest or weed control at 200 ppm [2] | pest or weed control at 200 ppm [3] | pest or weed control at 200 ppm [4]

CCC(COC)NC(=O)c1ccc(-c2noc(C(F)(F)F)n2)cc1 (stereo not shown) [Compound 3a.9, N-[1-(methoxymethyl)propyl]-4-[5-(trifluoromethyl)-1,2,4-oxadiazol-3-yl]benzamide]
≥ 80%: inhibition at 20 ppm [1] | pest or weed control at 200 ppm [2] | pest or weed control at 200 ppm [3] | pest or weed control at 200 ppm [4]

CCC(C)NC(=O)c1ccc(-c2noc(C(F)(F)F)n2)cc1 (stereo not shown) [Compound 3a.7, N-sec-butyl-4-[5-(trifluoromethyl)-1,2,4-oxadiazol-3-yl]benzamide]
≥ 80%: inhibition at 20 ppm [1] | pest or weed control at 200 ppm [2] | pest or weed control at 200 ppm [3] | pest or weed control at 200 ppm [4]

CCC(COC)NC(=O)c1ccc(-c2noc(C(F)(F)F)n2)cc1F (stereo not shown) [Compound 3b.11, 2-fluoro-N-[1-(methoxymethyl)propyl]-4-[5-(trifluoromethyl)-1,2,4-oxadiazol-3-yl]benzamide]
≥ 80%: inhibition at 20 ppm [1] | pest or weed control at 200 ppm [2] | pest or weed control at 200 ppm [3] | pest or weed control at 200 ppm [4]

CC(C)N(C)C(=O)c1ccc(-c2noc(C(F)(F)F)n2)cc1F [Compound 3b.36, 2-fluoro-N-isopropyl-N-methyl-4-[5-(trifluoromethyl)-1,2,4-oxadiazol-3-yl]benzamide]
≥ 80%: inhibition at 20 ppm [1] | pest or weed control at 200 ppm [2] | pest or weed control at 200 ppm [3] | pest or weed control at 200 ppm [4]
